Measurements: US5403717A, “Diagnosis of premalignant or malignant conditions of human secretory epithelia” (Pacific Northwest Research, priority 1992, dated 1995)

Assays:
[1] = molecular target: T1, β1→3N-acetylglucosaminyltransferase (Homo sapiens, UniProt Q9BYG0); assay: β1→3N-acetylglucosaminyltransferase assay with Triton X-100 solubilized enzyme from SW403 cells; type: biochemical; details: for effect of removal from the reaction mixture on activity (in words): component removed from complete system; for β1-3N-acetylglucosaminyltransferase activity, named component omitted from complete system: component removed; for Effect of detergents on β1-3N-acetylglucosaminyltransferase activity: detergent added at 0.3% final concentration, 0.05% Triton X-100 present from enzyme, acceptor lactosylceramide; for fold less activity on substitution of Mn++: 10 mM final concentration, compared to Mn++; for β1-3N-acetylglucosaminyltransferase activity, Mn++ replaced by the named agent: plus agent at 10 mM final
T1 construct: solubilized from a 27,000 x g membrane pellet of SW403 cells by 0.2% Triton X-100; endogenous in cells; host or cells: SW403 cells (human colonic adenocarcinoma), 0.2% Triton X-100 soluble membrane fraction
T1 sequence (Q9BYG0 1-378): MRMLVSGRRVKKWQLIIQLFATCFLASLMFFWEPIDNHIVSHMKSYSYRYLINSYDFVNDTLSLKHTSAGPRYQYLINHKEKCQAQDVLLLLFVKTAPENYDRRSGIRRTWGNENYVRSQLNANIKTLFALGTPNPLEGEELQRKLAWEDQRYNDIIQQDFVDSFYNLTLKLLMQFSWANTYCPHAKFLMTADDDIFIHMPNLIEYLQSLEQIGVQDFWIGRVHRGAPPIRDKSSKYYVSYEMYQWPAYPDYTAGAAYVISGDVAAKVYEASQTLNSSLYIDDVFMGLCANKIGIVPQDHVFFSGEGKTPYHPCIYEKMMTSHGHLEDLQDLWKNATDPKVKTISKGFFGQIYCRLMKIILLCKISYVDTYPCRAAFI
Protocol: (§1) The labelled product was extracted into the lower phase of a Folch extraction (J. Biol. Chem., 191, 819-831), dried by an N2 stream, and dissolved in 20 μl of CHCl3 :CH3 OH (2:1). An aliquot, 10 μl was spotted on a HPTLC plate (Merck) and developed in a solvent composed of CHCl3 :CH3 OH:H2 O (60:35:8). The labelled glycolipids were located by autoradiography, scraped, and quantitated in a liquid scintillation counter.

[2] = tested on: β1→3N-acetylglucosaminyltransferase; assay: as above; type: biochemical, human; details: for Substrate specificity of β1-3N-acetylglucosaminyltransferase: transfer of GlcNAc to acceptor: 40 ug of each acceptor, ND = none detected
Protocol: as §1

[3] = molecular target: T2, β1-3galactosyltransferase (Homo sapiens, UniProt Q9Y2C3); assay: Effect of α-lactalbumin on β1-3galactosyltransferase of a 0.2% Triton X-100 soluble fraction from SW403 cells; type: biochemical; details: 30 μg acceptor, 0.2 mg solubilized protein
T2 construct: catalyzed by a 0.2% Triton X-100 soluble fraction from SW403 cells; endogenous in cells; host or cells: SW403 cells (human colonic adenocarcinoma), 0.2% Triton X-100 soluble fraction
T2 sequence (Q9Y2C3 1-310): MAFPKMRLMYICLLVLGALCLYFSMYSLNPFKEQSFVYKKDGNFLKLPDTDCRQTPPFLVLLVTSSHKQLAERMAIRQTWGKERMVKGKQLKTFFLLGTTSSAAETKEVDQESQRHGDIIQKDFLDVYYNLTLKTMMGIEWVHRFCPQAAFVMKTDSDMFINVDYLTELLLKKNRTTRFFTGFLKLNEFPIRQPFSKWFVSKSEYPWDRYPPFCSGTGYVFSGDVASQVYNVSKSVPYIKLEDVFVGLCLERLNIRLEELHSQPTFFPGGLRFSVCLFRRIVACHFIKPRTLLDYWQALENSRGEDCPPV
Protocol: The effect of increasing α-lactalbumin on the transfer of galactose to glucosylceramide, +--+, Lc3 forming nLc4, o--o, and Lc3 forming Lc4, x--x, catalyzed by a 0.2% Triton X-100 soluble fraction from SW403 cells is shown. The assays were conducted in the presence of 30 μg of the indicated acceptor and 0.2 mg of solubilized protein.
Synthesis of type 1 and 2 chain structures Lc4 and nLc4 are catalyzed by β1-3 and β1-4galactosyltransferases, respectively, competing for Lc3. A β1-4-galactosyltransferase responsible for transfer of Gal to Lc3 in human plasma was previously reported to be lactose synthetase A protein which was also involved in the synthesis of lactosylceramide (J. Biochem., 92, 1123-1127 (1982)). The effect of increasing α-lactalbumin on the β1-4galactosyltransferase activity in SW403 cells is seen with glucosylceramide and Lc3 as acceptors.
The reaction mixtures contained 2.5 μmol HEPES buffer, pH 7.0, 20 μg Lc3, 10 μg deoxycholate, 1 μmol MnCI2, 0.5 μmol CDPcholine, 0.5 μmol galactonolactone, 15 nmol UDP[^14 C]galactose (30,000 cpm/nmol), and 0.1 mg protein in a total volume of 0.1 ml. […] The incorporation of [^14 C]galactose into glycolipid was determined as described above.

**Q.** For `C[N+](C)(C)CCOP(=O)(O)OP(=O)([O-])OC[C@H]1O[C@@H](n2ccc(N)nc2=O)[C@H](O)[C@@H]1O` [CDPcholine], which “effect of removal from the reaction mixture on activity (in words)” value [1] is on record?
**A.** significant loss of activity

**Q.** And the “β1-3N-acetylglucosaminyltransferase activity, named component omitted from complete system” value ([1]; complete system gives 76.0)?
**A.** 65.3 pmol/hr/mg protein

**Q.** How did the “Substrate specificity of β1-3N-acetylglucosaminyltransferase: transfer of GlcNAc to acceptor” value [2] turn out when Lactotetraosylceramide [Lc4] was run?
**A.** 27 pmol/hr/mg protein

**Q.** What about the “transfer of GlcNAc to acceptor (in words)” value ([2]; SW403 cell enzyme, lacto-series glycolipid acceptors) of the same molecule?
**A.** detectable but is much lower

**Q.** How did the “Effect of detergents on β1-3N-acetylglucosaminyltransferase activity” value (“Effect of detergents” for short) [1] turn out when `C[C@H](CCC(=O)NCCC[N+](C)(C)CC(O)CS(=O)(=O)[O-])[C@H]1CC[C@H]2[C@@H]3[C@H](O)C[C@@H]4C[C@H](O)CC[C@]4(C)[C@H]3C[C@H](O)[C@]12C` (some centres unmarked) [CHAPSO] was run?
**A.** 54.5 pmol/hr/mg protein

**Q.** For `C[C@H](CCC(=O)O)[C@H]1CC[C@H]2[C@@H]3CC[C@@H]4C[C@H](O)CC[C@]4(C)[C@H]3C[C@H](O)[C@]12C` [Deoxycholate], which “Effect of detergents” value [1] is on record?
**A.** 67.5 pmol/hr/mg protein

**Q.** Which “Effect of detergents” value [1] does the source give for Triton X-100 here?
**A.** 67.9 pmol/hr/mg protein

**Q.** What does the source list for lactosylceramide?
**A.** Substrate specificity of β1-3N-acetylglucosaminyltransferase: transfer of GlcNAc to acceptor [2]: 76 pmol/hr/mg protein; effect of removal from the reaction mixture on activity (in words) [1]: greatly diminished the activity; β1-3N-acetylglucosaminyltransferase activity, named component omitted from complete system ([1]; complete system gives 76.0): 8.3 pmol/hr/mg protein

**Q.** What does the source list for `[Ca+2]` [Ca^++]?
**A.** fold less activity on substitution of Mn++ [1]: 13 fold; β1-3N-acetylglucosaminyltransferase activity, Mn++ replaced by the named agent ([1]; complete system gives 76.0): 6.0 pmol/hr/mg protein

**Q.** With `[Mg+2]` [Mg^++] as the molecule, how does the “fold less activity on substitution of Mn++” value [1] read?
**A.** 21 fold

**Q.** What about the “β1-3N-acetylglucosaminyltransferase activity, Mn++ replaced by the named agent” value ([1]; complete system gives 76.0) of the same molecule?
**A.** 3.6 pmol/hr/mg protein

**Q.** What does the source list for `CC(=O)N[C@H]1C(O)O[C@H](CO)[C@@H](O)[C@@H]1O` (some centres unmarked) [GlcNAc]?
**A.** β1-3N-acetylglucosaminyltransferase activity, GlcNAc added to complete system ([1]; GlcNAc 10 mM final, complete system gives 76.0): 80.3 pmol/hr/mg protein; effect on transfer of GlcNAc to lactosylceramide (in words) ([1]; agent at 10 mM final concentration (EDTA in place of Mn++; GlcNAc added)): only slight stimulation of the activity

B1: α-lactalbumin: protein modifier of lactose synthetase A protein (β1-4galactosyltransferase) (protein, UniProt P00709 20-142, looked up)
Alpha-lactalbumin: KQFTKCELSQLLKDIDGYGGIALPELICTMFHTSGYDTQAIVENNESTEYGLFQISNKLWCKSSQVPQSRNICDISCDKFLDDDITDDIMCAKKILDIKGIDYWLAHKALCTEKLEQWLCEKL
**Q.** Which “effect of α-lactalbumin on β1-3galactosyltransferase with Lc3 as acceptor (forming Lc4)” value [3] does the source give for B1 here?
**A.** Slight activation
